Experiment [1] can be described thus: Inhibition of cell proliferation of human RERF-LC-Sq1 cells after 72 hrs by MTS assay. The experiment is classed as functional. The settings on record: RERF-LC-Sq1, 72 h. A general note: Formazan colour is commonly taken as a measure of viable cells.
Experiment [2] addresses T1, Transcription intermediary factor 1-alpha (Homo sapiens, UniProt O15164).
T1 sequence (O15164 whole entry): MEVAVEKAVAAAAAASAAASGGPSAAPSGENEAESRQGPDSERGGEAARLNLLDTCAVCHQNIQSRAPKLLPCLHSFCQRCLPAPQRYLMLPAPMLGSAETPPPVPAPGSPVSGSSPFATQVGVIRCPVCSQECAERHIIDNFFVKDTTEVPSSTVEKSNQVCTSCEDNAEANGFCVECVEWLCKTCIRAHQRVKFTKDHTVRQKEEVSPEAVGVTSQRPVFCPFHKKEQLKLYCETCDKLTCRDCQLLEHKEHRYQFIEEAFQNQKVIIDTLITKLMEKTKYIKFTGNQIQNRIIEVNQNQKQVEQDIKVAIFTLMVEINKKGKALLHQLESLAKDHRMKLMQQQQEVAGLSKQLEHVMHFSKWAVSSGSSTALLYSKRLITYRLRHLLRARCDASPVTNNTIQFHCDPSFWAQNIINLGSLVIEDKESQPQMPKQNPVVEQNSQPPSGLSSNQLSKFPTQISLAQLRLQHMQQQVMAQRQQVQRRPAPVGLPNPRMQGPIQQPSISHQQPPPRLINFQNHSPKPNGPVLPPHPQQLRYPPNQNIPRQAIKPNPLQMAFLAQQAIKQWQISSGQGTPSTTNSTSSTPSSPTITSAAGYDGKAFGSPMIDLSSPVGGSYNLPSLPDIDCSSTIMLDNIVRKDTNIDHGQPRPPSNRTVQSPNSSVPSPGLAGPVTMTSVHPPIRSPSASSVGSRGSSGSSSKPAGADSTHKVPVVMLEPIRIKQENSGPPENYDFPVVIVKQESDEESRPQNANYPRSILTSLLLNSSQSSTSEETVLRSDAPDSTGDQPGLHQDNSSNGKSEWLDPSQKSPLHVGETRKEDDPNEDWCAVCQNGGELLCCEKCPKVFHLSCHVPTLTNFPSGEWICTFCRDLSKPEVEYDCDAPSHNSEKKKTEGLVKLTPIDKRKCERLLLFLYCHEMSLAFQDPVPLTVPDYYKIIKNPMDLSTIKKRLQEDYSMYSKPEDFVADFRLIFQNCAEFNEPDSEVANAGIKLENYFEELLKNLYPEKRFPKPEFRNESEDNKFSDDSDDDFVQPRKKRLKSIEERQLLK
The experiment can be described thus: Inhibition of human TRIM24 bromodomain (790 to 977 residues) expressed in Escherichia coli BL21 after 1 hr by BROMOscan assay.

The target in experiment [3] is T2, Bromodomain-containing protein 1 (Homo sapiens, UniProt O95696).
T2 sequence (O95696 whole entry): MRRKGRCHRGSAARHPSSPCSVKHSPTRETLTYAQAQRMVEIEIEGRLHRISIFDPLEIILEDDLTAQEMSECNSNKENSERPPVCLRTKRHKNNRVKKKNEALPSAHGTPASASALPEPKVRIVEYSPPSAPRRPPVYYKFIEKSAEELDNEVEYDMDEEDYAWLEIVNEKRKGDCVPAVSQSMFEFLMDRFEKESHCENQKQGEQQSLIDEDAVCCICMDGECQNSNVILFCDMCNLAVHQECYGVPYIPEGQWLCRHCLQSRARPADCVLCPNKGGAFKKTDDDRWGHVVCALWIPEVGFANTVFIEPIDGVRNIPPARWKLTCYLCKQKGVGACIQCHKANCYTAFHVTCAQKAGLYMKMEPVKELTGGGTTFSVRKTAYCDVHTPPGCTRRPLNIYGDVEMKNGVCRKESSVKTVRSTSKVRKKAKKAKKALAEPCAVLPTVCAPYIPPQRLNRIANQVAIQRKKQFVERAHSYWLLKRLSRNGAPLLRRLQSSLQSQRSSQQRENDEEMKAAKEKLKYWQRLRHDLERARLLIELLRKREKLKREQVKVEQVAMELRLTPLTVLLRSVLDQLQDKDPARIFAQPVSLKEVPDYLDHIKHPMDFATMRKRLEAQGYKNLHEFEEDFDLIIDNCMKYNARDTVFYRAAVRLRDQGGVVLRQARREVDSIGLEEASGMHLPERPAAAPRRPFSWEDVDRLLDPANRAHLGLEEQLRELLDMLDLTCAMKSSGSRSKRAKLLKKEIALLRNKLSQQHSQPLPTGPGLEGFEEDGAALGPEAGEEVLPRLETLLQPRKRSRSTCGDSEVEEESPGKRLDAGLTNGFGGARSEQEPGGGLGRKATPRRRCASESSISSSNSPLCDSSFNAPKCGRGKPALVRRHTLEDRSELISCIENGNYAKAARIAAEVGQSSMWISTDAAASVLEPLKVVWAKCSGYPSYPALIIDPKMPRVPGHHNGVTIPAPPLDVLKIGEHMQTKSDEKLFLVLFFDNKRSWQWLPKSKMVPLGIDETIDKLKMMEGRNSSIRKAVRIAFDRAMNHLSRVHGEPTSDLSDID
As to the kind of experiment: Inhibition of His-tagged BRPF2 (unknown origin) after 30 mins by alphaScreen assay. On the technique in general: In Alpha technology, singlet oxygen from a donor bead excites a nearby acceptor bead.

pIC50: −log10 of the molar value.

As usually defined, the GI50 is the concentration giving 50% growth inhibition. Lower therefore signals more potent growth inhibition. What is called pIC50 is the negative decadic logarithm of the IC50, by convention in mol/L. As for `COc1cc(C#N)ccc1S(=O)(=O)Nc1ccc2c(c1)cc(C)c(=O)n2C`, halving of growth in experiment [1] (GI50) required 16600 nM. Besides, the pIC50 in experiment [2] was 5.80; in experiment [3], 6.21.

(Values after ChEMBL document CHEMBL4028852, “Design of a Chemical Probe for the Bromodomain and Plant Homeodomain Finger-Containing (BRPF) Family of Proteins” (J Med Chem, 2017).)
